Several values for one entry are separate records, joined by “and”; a condition that tells them apart may be missing. Equal values may be shown once.
Experiments:
[1] = molecular target: T1, VEGFR-2 (Homo sapiens, UniProt P35968); assay: ADP-Glo in vitro RTK inhibition assay, VEGFR-2; type: biochemical; conditions: ATP 50 μM
Experimental: (§1) In order to validate the direct effect of title compounds on VEGFR-2, Tie-2, and EphB4 kinases, we performed in vitro assay using the ADP-Glo Kinase Assay Kit (Promega, Wisconsin, USA).
(§2) The kinase assay was performed in a reaction mixture of final volume of 10 μL. […] The plate was incubated at 30°C for 1 h. After the plate was cooled at room temperature for 5 min, 5 μL of ADP-Glo reagent was added into each well to stop the reaction and consume the remaining […] within 40 min. At the end, 10 μL of kinase detection reagent was added into the well and incubated for 30 min to produce a luminescence signal. […] The assay plate was incubated at 30°C for 4 h. After the plate was cooled at room temperature for 5 min, 5 μL of ADP-Glo reagent was added into each well to stop the reaction and consume the remaining […] within 1 h. At the end, 10 μL of kinase detection reagent was added into each well and incubated for 30 min to produce a luminescence signal. The luminescence was read by VICTOR-X multi-label plate reader.

[2] = molecular target: c-Kit (Homo sapiens, UniProt P10721); assay: Kinase-Glo Plus RTK selectivity assay, c-Kit; type: biochemical; conditions: 10 μM ATP
Experimental: (§3) A 50 μL reaction mixture contains 40 mM Tris, pH 7.4, 10 mM MgCl2, 0.1 mg/ml BSA, 1 mM DTT, 10 μM ATP, kinase and substrate (0.2 mg/mL Poly(Glu, Tyr)/10 μM ATP). The test compounds were diluted in 10% DMSO and 5 μL of the dilution was added to a 50 μL reaction so that the final concentration of DMSO is 1% in all of reactions. The assay was performed using Kinase-Glo Plus luminescence kinase assay kit. It measures kinase activity by quantitating the amount of ATP remaining in solution following a kinase reaction. The luminescent signal from the assay is correlated with the amount of ATP present and is inversely correlated with the amount of kinase activity. The IC50 values were calculated using nonlinear regression with normalized dose−response fit using Prism GraphPad software.

[3] = molecular target: FGFR-4 (Homo sapiens, UniProt P22455); assay: Kinase-Glo Plus RTK selectivity assay, FGFR-4; type: biochemical; conditions: 10 μM ATP
Experimental: as §3

[4] = molecular target: TIE-2 (Homo sapiens, UniProt Q02763); assay: ADP-Glo in vitro RTK inhibition assay, TIE-2; type: biochemical; conditions: ATP 50 μM
Experimental: as §1, §2

[5] = molecular target: VEGFR-1 (Homo sapiens, UniProt P17948); assay: Kinase-Glo Plus RTK selectivity assay, VEGFR-1; type: biochemical; conditions: 10 μM ATP
Experimental: as §3

[6] = molecular target: EGFR (Homo sapiens, UniProt P00533); assay: Kinase-Glo Plus RTK selectivity assay, EGFR; type: biochemical; conditions: 10 μM ATP
Experimental: as §3

[7] = tested on: MCF-7 xenograft; assay: In vivo MCF-7 xenograft mice model; conditions: ig; for Final body weight / Tumor growth inhibition / Final tumor weight: 21 days; for Final tumor weight: control 0.848±0.5; for Initial body weight: before treatment
Experimental: Six-week old female BALB/c mice were purchased from Shanghai Laboratory Animal center of the Chinese Academy of Sciences and housed under aseptic and ventilated condition. The mice were inoculated by subcutaneous injection with MCF-7 cancer cells suspended in 5% saline. Tumor volume and weight were measured on alternate days. Body weights were monitored as an indicator of toxicity. […] Treatment started from the next day and continued for 21 days. All mice were killed at the end of the experiment, and subcutaneous tumors were removed and weighted.

[8] = molecular target: T1, VEGFR-2; assay: VEGFR-2/cell membrane chromatography (CMC) affinity evaluation; type: binding
Experimental: In previous studies, artificial cultures highly expressing VEGFR-2 on HEK293 cell lines were constructed. […] Chromatographic conditions: 10 mm×2.0 mm; flow rate0.6 mL/min; column temperature 37°C; mobile phase 5 mM PBS, pH 7.4; detection wavelength 270 nm.
The VEGFR-2 cell membrane stationary phase was prepared as previous reported. Aqueous ammonium acetate buffer solution (pH 7.4, 5 mM) was pumped at a flow rate of 0.2 mL/min as the mobile phase after VEGFR-2/CMC column was loaded onto the chromatography system at the temperature of 37°C. […] The mobile phase was 5.0 mM phosphate burred saline with a 0.6 mL/min flow rate at a column temperature of 37°C. The detected wavelength was 270 nm. The test compound was injected into the VEGFR-2/CMC column and their retention characteristics were identified to evaluate their affinity with VEGFR-2.

[9] = tested on: normal human liver cells (QSG7701); assay: Cytotoxicity on normal cells, QSG7701; type: cell-based; conditions: MTT, 48 h, read-out: Anti-proliferative activity IC50, QSG7701 (normal cells)
Experimental: (§4) In order to determine the anti-angiogenic effect of these multi-target inhibitors, we evaluated their effect on HECs (EA.hy926) viability using cell counting kit-8 (CCK-8) method.
(§5) These RTKs play critical roles in the proliferation of various cancers. Therefore, RTKs inhibition generally translate well into anti-proliferation activity.
(§6) Exponentially growing cells were harvested and plated in 96-well plates at a concentration of 1×10^4 cells/well per well, and then were incubated at 37°C for 24 h. […] Subsequently, 22 μL fresh MTT (5 mg/mL) was added to each well and incubated at 37°C for 4 h. […] DMSO was added to each well after supernatant was discarded. Absorbance values were determined by a microplate reader (Bio-Rad Instruments) at 490 nm. The IC50 values were calculated according to inhibition ratios.

[10] = tested on: human epidermoid carcinoma cell line (A431); assay: Anti-proliferative MTT assay, A431; type: cell-based; conditions: A-431, 48 h
Experimental: as §5, §6

[11] = tested on: human embryonic kidney 293 (HEK293); assay: Cytotoxicity on normal cells, HEK293; type: cell-based; conditions: MTT, 48 h, read-out: Anti-proliferative activity IC50, HEK293 (normal cells)
Experimental: as §4, §5, §6

[12] = tested on: VEGFR-2; assay: Western blot of VEGFR-2 level and phosphorylation in EA.hy926 cells; type: cell-based, human
Experimental: The expression and phosphorylation of VEGFR-2 in EA.hy926 cells were assessed using western blot analysis with various antibodies. […] Cell lysates containing equal amounts of protein were separated by SDS polyacrylamide gel electrophoresis and transferred to polyvinylidene difluoride membranes. After being blocked in 5% nonfat milk in Tris-buffered saline with 0.1% Tween 20, pH 7.6, the membranes were incubated with the appropriate primary antibodies at 4°C overnight and then exposed to secondary antibodies for 2 h at room temperature. Immunoreactive proteins were visualized using the enhanced chemiluminescence system from Pierce Chemical.

[13] = tested on: human lung cancer cell (A549); assay: Anti-proliferative MTT assay, A549; type: cell-based; conditions: 48 h
Experimental: as §5, §6

T1 sequence (P35968 20-1356): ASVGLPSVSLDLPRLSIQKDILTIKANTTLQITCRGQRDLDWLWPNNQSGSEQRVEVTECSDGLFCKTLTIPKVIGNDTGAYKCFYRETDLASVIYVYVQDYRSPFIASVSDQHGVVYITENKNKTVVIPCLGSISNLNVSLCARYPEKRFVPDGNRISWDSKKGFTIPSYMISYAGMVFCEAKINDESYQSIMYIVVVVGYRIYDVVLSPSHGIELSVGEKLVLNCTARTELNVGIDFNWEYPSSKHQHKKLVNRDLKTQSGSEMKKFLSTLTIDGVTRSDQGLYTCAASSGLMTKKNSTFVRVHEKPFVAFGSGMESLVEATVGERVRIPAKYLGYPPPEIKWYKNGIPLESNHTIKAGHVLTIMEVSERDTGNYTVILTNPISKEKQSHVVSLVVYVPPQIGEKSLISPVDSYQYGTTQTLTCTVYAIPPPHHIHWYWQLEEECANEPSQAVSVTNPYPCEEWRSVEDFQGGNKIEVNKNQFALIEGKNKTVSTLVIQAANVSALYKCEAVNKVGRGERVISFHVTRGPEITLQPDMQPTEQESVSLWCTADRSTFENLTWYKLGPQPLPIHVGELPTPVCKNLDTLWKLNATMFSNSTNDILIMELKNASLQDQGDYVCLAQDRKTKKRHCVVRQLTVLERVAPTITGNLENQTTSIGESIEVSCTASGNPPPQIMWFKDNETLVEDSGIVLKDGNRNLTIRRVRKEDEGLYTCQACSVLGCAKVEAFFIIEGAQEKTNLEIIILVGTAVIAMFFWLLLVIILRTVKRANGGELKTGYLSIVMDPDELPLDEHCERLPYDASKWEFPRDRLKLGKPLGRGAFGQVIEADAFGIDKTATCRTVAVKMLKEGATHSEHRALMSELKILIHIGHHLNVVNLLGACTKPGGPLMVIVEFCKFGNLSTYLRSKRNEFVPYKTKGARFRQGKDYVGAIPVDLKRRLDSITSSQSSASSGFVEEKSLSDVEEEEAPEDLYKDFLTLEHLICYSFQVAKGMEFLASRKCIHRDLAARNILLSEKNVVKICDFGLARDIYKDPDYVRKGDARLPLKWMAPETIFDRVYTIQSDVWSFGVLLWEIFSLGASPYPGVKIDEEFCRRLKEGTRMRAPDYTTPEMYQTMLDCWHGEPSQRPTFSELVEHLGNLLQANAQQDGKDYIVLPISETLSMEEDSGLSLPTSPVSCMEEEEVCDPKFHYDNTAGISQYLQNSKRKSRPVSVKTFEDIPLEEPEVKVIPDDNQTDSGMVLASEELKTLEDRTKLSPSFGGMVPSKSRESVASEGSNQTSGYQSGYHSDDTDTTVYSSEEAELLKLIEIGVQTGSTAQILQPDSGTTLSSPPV
Chain of TIE-2 (Q02763 23-1124): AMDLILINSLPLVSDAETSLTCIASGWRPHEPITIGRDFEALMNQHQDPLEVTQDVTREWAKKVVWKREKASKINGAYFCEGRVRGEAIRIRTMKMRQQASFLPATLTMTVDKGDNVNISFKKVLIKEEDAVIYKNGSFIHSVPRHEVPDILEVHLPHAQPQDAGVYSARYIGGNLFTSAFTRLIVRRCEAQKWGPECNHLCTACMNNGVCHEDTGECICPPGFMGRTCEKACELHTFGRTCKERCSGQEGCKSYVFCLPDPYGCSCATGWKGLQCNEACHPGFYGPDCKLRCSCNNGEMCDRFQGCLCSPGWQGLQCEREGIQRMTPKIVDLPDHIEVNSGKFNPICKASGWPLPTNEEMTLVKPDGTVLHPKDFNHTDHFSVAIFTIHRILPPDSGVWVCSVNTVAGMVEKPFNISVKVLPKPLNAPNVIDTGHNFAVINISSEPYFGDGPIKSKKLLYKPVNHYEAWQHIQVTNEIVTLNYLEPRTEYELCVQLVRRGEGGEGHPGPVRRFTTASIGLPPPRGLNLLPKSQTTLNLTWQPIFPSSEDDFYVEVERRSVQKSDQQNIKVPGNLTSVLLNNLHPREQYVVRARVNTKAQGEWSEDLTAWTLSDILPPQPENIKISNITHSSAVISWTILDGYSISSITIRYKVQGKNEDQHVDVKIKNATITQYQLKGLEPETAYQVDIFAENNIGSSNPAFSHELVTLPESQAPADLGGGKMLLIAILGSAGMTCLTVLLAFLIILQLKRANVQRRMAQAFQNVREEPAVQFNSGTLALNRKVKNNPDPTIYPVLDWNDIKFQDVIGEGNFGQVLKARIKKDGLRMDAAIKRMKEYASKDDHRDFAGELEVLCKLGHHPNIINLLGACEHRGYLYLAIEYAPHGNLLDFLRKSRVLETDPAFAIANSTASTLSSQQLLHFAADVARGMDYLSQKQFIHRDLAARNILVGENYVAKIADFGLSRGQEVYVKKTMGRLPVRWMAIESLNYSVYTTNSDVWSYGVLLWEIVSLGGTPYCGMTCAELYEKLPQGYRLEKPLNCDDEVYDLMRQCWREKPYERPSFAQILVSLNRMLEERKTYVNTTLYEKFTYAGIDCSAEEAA
Chain of FGFR-4 (P22455 22-802, species assumed): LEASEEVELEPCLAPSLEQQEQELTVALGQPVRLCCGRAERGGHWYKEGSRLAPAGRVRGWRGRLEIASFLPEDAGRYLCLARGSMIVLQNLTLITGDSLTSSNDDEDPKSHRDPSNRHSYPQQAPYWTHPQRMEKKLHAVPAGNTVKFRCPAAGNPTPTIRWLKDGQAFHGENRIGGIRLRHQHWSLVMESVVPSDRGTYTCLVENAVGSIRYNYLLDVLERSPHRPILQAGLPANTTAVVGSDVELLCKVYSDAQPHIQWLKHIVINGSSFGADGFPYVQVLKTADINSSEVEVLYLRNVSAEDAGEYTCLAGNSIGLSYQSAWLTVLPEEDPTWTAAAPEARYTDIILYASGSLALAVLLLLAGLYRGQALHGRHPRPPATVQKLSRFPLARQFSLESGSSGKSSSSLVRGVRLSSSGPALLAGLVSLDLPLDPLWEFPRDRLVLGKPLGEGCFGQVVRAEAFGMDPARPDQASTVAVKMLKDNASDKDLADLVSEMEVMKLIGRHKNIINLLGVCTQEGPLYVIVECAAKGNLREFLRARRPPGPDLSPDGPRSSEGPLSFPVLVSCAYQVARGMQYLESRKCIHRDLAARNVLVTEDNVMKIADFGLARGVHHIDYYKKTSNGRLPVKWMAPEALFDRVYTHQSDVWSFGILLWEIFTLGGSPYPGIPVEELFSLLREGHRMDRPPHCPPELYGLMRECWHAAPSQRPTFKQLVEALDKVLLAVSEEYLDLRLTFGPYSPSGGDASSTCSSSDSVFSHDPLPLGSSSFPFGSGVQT
Chain of EGFR (P00533 25-1210, species assumed): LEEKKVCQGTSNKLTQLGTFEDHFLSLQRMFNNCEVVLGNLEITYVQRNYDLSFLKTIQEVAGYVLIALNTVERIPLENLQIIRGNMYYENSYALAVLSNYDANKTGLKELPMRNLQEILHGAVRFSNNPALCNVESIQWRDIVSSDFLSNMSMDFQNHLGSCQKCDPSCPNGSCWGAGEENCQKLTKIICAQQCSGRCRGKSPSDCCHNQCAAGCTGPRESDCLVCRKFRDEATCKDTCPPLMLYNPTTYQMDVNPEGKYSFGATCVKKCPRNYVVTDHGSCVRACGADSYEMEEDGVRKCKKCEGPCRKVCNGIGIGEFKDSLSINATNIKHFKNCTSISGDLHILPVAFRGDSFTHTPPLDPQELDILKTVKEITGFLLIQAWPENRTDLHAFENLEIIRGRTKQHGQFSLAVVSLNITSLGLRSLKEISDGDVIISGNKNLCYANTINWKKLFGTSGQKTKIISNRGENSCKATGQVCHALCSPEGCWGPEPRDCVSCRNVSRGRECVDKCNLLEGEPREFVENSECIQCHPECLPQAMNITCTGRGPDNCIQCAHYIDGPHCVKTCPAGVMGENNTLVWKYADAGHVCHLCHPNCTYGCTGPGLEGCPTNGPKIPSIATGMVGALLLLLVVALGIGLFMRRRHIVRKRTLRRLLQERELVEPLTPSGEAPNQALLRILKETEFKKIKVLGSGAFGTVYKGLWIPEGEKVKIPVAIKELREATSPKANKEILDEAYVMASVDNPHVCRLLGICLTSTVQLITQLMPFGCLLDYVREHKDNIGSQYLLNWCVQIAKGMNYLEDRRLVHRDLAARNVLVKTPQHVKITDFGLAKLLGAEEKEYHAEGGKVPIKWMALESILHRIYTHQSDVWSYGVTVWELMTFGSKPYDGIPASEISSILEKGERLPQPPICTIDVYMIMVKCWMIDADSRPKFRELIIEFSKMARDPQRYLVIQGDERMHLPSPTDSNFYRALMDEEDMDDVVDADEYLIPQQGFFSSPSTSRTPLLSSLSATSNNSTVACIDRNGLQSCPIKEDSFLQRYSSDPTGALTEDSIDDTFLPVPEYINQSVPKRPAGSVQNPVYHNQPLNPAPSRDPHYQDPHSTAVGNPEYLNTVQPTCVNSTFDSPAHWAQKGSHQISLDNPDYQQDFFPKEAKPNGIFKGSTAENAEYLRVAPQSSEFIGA

- IC50 [1]: 0.00077 µM
- IC50 [2]: 0.142 µM
- IC50 [3]: > 0.5 µM
- IC50 [4]: 0.00887 µM
- IC50 [5]: 0.192 µM
- IC50 [6]: 0.0988 µM
- Direct competitive assay on VEGFR-2/CMC (change in K' of multi-target RTK inhibitors) ([8]; QDAU5 at increasing concentrations in the mobile phase): interacted with the same site of VEGFR-2
- Retention time on VEGFR-2/cell membrane stationary phase column ([8]; flow rate 0.6 mL/min, 37°C, 5 mM PBS pH 7.4, 270 nm): 38 min and 38.0 min
- IC50 [10]: 16.9 µM
- IC50 [13]: 8.37 µM
Structure (SMILES): O=C(Nc1ccc(-c2ccc3c(=O)[nH]cnc3c2)cc1)Nc1ccc(F)c(F)c1 [QDAU5, 1-(3,4-difluorophenyl)-3-(4-(4-oxo-3,4-dihydroquinazolin-7-yl)phenyl)urea]
- Final body weight ([7]; 20 mg/kg daily): 17.4 ± 1.0 g
- Tumor growth inhibition ([7]; 20 mg/kg daily): 7.2%
- Final tumor weight ([7]; 20 mg/kg daily): 0.787 ± 0.7 g
- Initial body weight ([7]; 20 mg/kg): 18.7 ± 0.8 g
- Final body weight ([7]; 40 mg/kg daily): 18.9 ± 1.2 g
- Tumor growth inhibition ([7]; 40 mg/kg daily, 40 mg/kg): 24%
- Final tumor weight ([7]; 40 mg/kg daily): 0.642 ± 0.8 g
- Initial body weight ([7]; 40 mg/kg): 18.4 ± 0.6 g
- Final body weight ([7]; 80 mg/kg daily): 16.1 ± 1.0 g
- Tumor growth inhibition ([7]; 80 mg/kg daily, 80 mg/kg): 47%
- Final tumor weight ([7]; 80 mg/kg daily): 0.449 ± 0.9 g
- Initial body weight ([7]; 80 mg/kg): 18.3 ± 0.7 g
- IC50 [9]: > 100 µM
- IC50 [11]: > 100 µM
- VEGF-induced tyrosine phosphorylation of VEGFR-2 ([12]; EA.hy926, 48 h, then 50 ng/mL VEGF for 10 min): dose-dependently decreased
- level of VEGFR-2 ([12]; VEGF-stimulated EA.hy926, 48 h): moderately reduced

— paper PMC5739597, “Discovery and evaluation of triple inhibitors of VEGFR-2, TIE-2 and EphB4 as anti-angiogenic and anti-cancer agents” (Oncotarget, 2017)
